{"source": "patent US20230218596A1", "about": "(MEREO BIOPHARMA 4 LIMITED, priority 2020, published 2023)", "origin": "cited, not measured here", "key": {"[1]": {"tested_on": "NE from other species, including mice", "details": "cited from earlier work"}, "cystic fibrosis": {"tested_on": "cystic fibrosis", "details": "cystic fibrosis patients, 4-week duration; cited from earlier work"}, "bronchiectasis": {"tested_on": "bronchiectasis", "details": "bronchiectasis patients, 4-week duration; cited from earlier work"}, "ARDS": {"tested_on": "ARDS", "details": "experimental models of ARDS; cited from earlier work"}, "human NE": {"biological_target": "T1, human NE (Homo sapiens, UniProt P08246)", "T1 sequence (P08246 30-267)": "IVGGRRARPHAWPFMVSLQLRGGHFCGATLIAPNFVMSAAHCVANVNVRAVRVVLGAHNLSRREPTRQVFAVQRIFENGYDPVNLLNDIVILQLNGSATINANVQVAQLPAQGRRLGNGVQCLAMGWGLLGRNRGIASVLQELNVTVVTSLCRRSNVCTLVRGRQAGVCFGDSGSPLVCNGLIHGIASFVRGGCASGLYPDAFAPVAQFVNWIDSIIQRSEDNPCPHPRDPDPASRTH", "details": "cited from earlier work"}, "NE [2]": {"biological_target": "T2, NE (Homo sapiens, UniProt P08246)", "details": "whole-blood assay; cited from earlier work"}, "NE [3]": {"biological_target": "T2, NE", "details": "cell-associated assay; cited from earlier work"}}, "note": "Read-outs that look alike come from different tables or passages of the source.", "data": [{"smiles": "Cc1c(-c2ccnn2C)cc(C(=O)NCc2ccc(S(C)(=O)=O)cn2)c(=O)n1-c1cccc(C(F)(F)F)c1", "note": "[Alvelestat, N-{[5-(methanesulfonyl)pyridin-2-yl]methyl}-6-methyl-5-(1-methyl-1H-pyrazol-5-yl)-2-oxo-1-[3-(trifluoromethyl)phenyl]-1,2-dihydropyridine-3-carboxamide]", "values": [{"measurement": "crossover potency for NE from other species", "setting": "[1]", "result": "good crossover potency"}, {"measurement": "biomarkers of elastase activity and inflammation", "setting": "cystic fibrosis", "result": "significant decrease"}, {"measurement": "lung function and inflammation", "setting": "bronchiectasis", "result": "clinically significant improvement"}, {"measurement": "lung inflammation and injury", "setting": "ARDS", "result": "protected the lung from inflammation and injury"}, {"measurement": "reversibility of inhibition", "setting": "human NE", "result": "rapidly reversible"}, {"measurement": "IC50", "setting": "NE [2]", "result": 0.044, "unit": "µM"}, {"measurement": "IC50", "setting": "NE [3]", "result": 0.048, "unit": "µM"}]}]}
